# Assay results as given in paper PMC2719696, “Kinetics and Cellular Site of Glycolipid Loading Control the Outcome of Natural Killer T Cell Activation” (Immunity, 2009).
# Target: T1, mCD1d.WT (Mus musculus, UniProt P11609)
# T1 construct: expressed in transfected cells; host or cells: A20 B lymphoma cells (provided by M. Kronenberg)
# T1 sequence (P11609 22-336): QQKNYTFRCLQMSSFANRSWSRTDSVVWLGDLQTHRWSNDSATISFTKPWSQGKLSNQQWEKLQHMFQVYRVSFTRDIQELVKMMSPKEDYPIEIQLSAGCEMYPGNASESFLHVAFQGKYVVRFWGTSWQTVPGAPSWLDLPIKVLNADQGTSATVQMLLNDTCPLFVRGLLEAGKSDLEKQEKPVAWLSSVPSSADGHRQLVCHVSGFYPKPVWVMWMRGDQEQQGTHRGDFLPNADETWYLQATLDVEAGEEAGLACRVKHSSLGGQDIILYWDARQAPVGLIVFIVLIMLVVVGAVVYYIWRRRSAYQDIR
# T1 sequence (P01887 21-119 partner): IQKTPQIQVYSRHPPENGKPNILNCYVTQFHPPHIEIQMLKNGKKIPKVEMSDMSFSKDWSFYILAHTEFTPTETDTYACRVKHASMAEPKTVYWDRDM
# Experiment: iNKT hybridoma DN3A4.1-2 stimulation with A20 cells expressing wild-type mCD1d, IL-2 release
# Type: cell-based
# Conditions: A20 B lymphoma cells expressing mCD1d.WT; compared to all Th2 cell-type cytokine-biasing analogs
# Protocol: Figure 4 Cell Surface versus Intracellular Loading of mCD1d with Different αGalCer Analogs (A) On the left, surface accumulation of CD1d-αGalCer complexes was studied with JAWS II cells harvested after incubation with the indicated glycolipids for 1, 4, or 16 hr and then stained without permeabilization with mAb L363 (red). Cells were then fixed, stained with DAPI for nuclei visualization (blue), and analyzed by confocal microscopy. On the right, the intracellular formation and trafficking of CD1d-αGalCer complexes were analyzed by treatment of JAWS II cells with αGalCer analogs for 1, 4, and 16 hr followed by fixation and permeabilization. The cells were stained for CD1d-αGalCer complexes (L363, red), late endosomes and lysosomes (anti-LAMP-1, green), and nuclei (DAPI, blue). Results are representative of three separate experiments. The scale bar represents 10 μm. […] Supernatant concentrations of IL-2 release were determined after 12 hr. […]
# For in vitro stimulation, murine iNKT hybridomas at 5 × 10^4 cells/well in 96-well plates were stimulated with an equal number of either JAWS II cells or transfected A20 cells in complete medium with glycolipids for 12 hr at 37°C, and levels of murine IL-2 secretion were determined. […] Subsequently the levels of IL-4, IL-13, and IFN-γ in culture supernatants were quantified by capture ELISA. […]
row,SMILES,relative potency at activating iNKT cells
1,CCCCCCCCCCCCCCCCCCCCCCCC(=O)NC(COC1OC(CO)C(O)C(O)C1O)C(O)C(O)CCCCCCCCCCCCCC (centres unmarked) [αGalCer-C24:0],significantly more potent
2,"CCCCCCCCCCCCCCCCCCCCCCCCCC(=O)NC(COC1OC(CO)C(O)C(O)C1O)C(O)C(O)CCCCCCCCCCCCCC (centres unmarked) [αGalCer-C26:0, reference compound]",significantly more potent
